Measured values reported in patent US20250275996A1, “COMBINATION OF TUNICAMYCIN-TYPE ANTIBIOTIC WITH POLYMYXINS AND USES THEREOF” (priority 2024, published 2025).

Legend:
P. aeruginosa ATCC 2783 = assay: MIC by resazurin staining assay, P. aeruginosa; type: cell-based, Pseudomonas aeruginosa
Experimental: (§1) The […] growth inhibition (MIC) using natural tunicamycin (TUN), a tunicamycin derivative TunR2, polymyxin B, or a combination of polymyxin B with TUN or TunR2 were tested. Testing was performed using the resazurin staining assay. The resazurin staining assay uses the reduction by bacterial viable cells of the blue, non-fluorescent, and non-toxic dye, resazurin, to pink, fluorescent resorufin to assess the viability of biofilms. The Minimal Inhibitory Concentration (MIC) values where determined using standard microbiological methods, for example by spotting dilutions of the compounds or combinations on solid agar media plates after inoculating with bacteria, yeast, or buffer alone, followed by incubating for a defined period. This method results in clearing zones on agar plates.
(§2) To determine the MIC for polymyxin B alone, plates inoculated with E. coli MG1655 (Gram-negative bacterium), P. aeruginosa ATCC 2783 (Gram-negative bacterium), B. subtilis MW10 (Gram-positive bacterium), S. cerevisiae (eukaryote) in TYG, or DMSO alone (Control) were spotted with a dilution gradient of polymyxin B, and incubated for 24 hours at 30° C.
(§3) To determine the MIC for TUN or TunR2 in the presence or absence of polymyxin B, plates inoculated with E. coli MG1655, or P. aeruginosa ATCC 2783 in TYG, were spotted with a dilution gradient of Tun or TunR2 in the presence or absence of polymyxin B at sub-MIC concentration (MIC/2), or DMSO alone (Control). Images of two plates inoculated with E. coli are shown in FIG. 4A and FIG. 4B, and images of two plates inoculated with P. aeruginosa are shown in FIG. 4C and FIG. 4D.
The activity of Cefquinome alone, or in the presence of TunR2, polymyxin B, or polymyxin B and TunR2 on P. aeruginosa was tested. The MIC was determined using the resazurin staining assay described in Example 1.
Plates inoculated with P. aeruginosa, or DMSO alone (Control) in TYG were spotted with a dilution gradient of Cefquinome in the presence of TunR2, polymyxin B, or polymyxin B and TunR2, and incubated for 24 hours at 37° C.

S. cerevisiae = assay: MIC by resazurin staining assay, yeast; type: cell-based, Saccharomyces cerevisiae; settings: 24 hours at 30° C., TYG
Experimental: as §1, §2

B. subtilis MW10 = assay: MIC by resazurin staining assay, B. subtilis; type: cell-based, Bacillus subtilis; settings: 24 hours at 30° C., TYG
Experimental: as §1, §2

E. coli MG1655 = assay: MIC by resazurin staining assay, E. coli; type: cell-based, Escherichia coli
Experimental: as §1, §2, §3
(§4) The activity of TUN or TunR2 in the presence or absence of polymyxin B on Serratia marcescens (a honey bee pathogen) or E. coli was tested. The MIC was determined using the resazurin staining assay described in Example 1.
Plates inoculated with S. marcescens B-2544, E. coli, or DMSO alone (Control) in TYG were spotted with a dilution gradient of TUN or TunR2 in the presence or absence of a sub-MIC concentration of polymyxin B (half the MIC concentration), and incubated for 24 hours at 37° C. An image of a plate inoculated with S. marcescens is shown in FIG. 7A, and an image of a plate inoculated with E. coli is shown in FIG. 7B. […] The results obtained for E. coli compare well with the MICs of other antibiotics as taught by m. de Boer et al. (2015, “Minimum Inhibitory Concentrations of Selected Antimicrobials Against Escherichia Coli and Trueperella pyogenes of Bovine Uterine Origin,” J Dairy Sci. 98:4427-4438).

S. marcescens B-2544 = assay: MIC by resazurin staining assay, S. marcescens; type: cell-based, Serratia marcescens; settings: 24 hours at 37° C.
Experimental: as §1, §4
Plates inoculated with S. marcescens B-2544, E. coli, or DMSO alone (Control) in TYG were spotted with a dilution gradient of TUN or TunR2 in the presence or absence of a sub-MIC concentration of polymyxin B (half the MIC concentration), and incubated for 24 hours at 37° C. […]

[1] = alone, dilution series, 24 hours at 37° C.

Compound: CO/N=C(\C(=O)N[C@@H]1C(=O)N2C(C(=O)[O-])=C(C[n+]3cccc4c3CCCC4)CS[C@H]12)c1csc(N)n1 [Cefquinome]
- MIC for Cefquinome (FIG. 8 legend) (P. aeruginosa ATCC 2783; P. aeruginosa in TYG, Cefquinome alone, 48 hours at 37° C.): 10.0 µg/mL
- MIC for Cefquinome alone (P. aeruginosa ATCC 2783; P. aeruginosa, 24 hours at 37° C.): 10 µg/mL
- MIC for Cefquinome in the presence of polymyxin B and TunR2 (P. aeruginosa ATCC 2783; P. aeruginosa, with 2.5 μg/mL polymyxin B and 6.25 μg/mL TunR2, 24 hours at 37° C.): 1.25 µg/mL
- MIC for Cefquinome in the presence of polymyxin B (P. aeruginosa ATCC 2783; P. aeruginosa, with 2.5 μg/mL polymyxin B, 24 hours at 37° C.): 5 µg/mL
- MIC for Cefquinome in the presence of TunR2 (P. aeruginosa ATCC 2783; P. aeruginosa, with 6.25 μg/mL TunR2, 24 hours at 37° C.): 10 µg/mL

Compound: polymyxin B
- MIC of polymyxin (P. aeruginosa ATCC 2783; Pseudomonas, polymyxin alone): 5.0 µg/mL
- effect on yeast (MIC for polymyxin B alone) (S. cerevisiae): not detectable
- MIC for polymyxin B alone (B. subtilis MW10): 2.5 µg/mL
- MIC of polymyxin (E. coli MG1655; E. coli, polymyxin alone): 0.625 µg/mL

Compound: tunicamycin
- effect on P. aeruginosa in the absence of polymyxin B (P. aeruginosa ATCC 2783; [1]): neither Tun nor TunR2 had noticeable effect
- growth of P. aeruginosa in the presence of polymyxin B (P. aeruginosa ATCC 2783; with polymyxin B at MIC/2 (2.5 μg/mL), 24 hours at 37° C.): no E. coli or P. aeruginosa grew
- MIC in the presence of polymyxin B (S. marcescens B-2544; S. marcescens, sub-MIC polymyxin B (half the MIC)): 5.0 µg/mL
- effect on S. marcescens when used alone (S. marcescens B-2544; absence of polymyxin B, any of the concentrations tested): neither TUN nor TunR2 had a detectable effect
- MIC in the presence of polymyxin B (E. coli MG1655; Example 2, E. coli, sub-MIC polymyxin B (half the MIC), 24 hours at 37° C.): 0.313 µg/mL
- effect on E. coli when used alone (E. coli MG1655; Example 2, absence of polymyxin B, 24 hours at 37° C., any of the concentrations tested): neither TUN nor TunR2 had a detectable effect
- effect on E. coli in the absence of polymyxin B (E. coli MG1655; [1]): neither Tun nor TunR2 had noticeable effect
- growth of E. coli in the presence of polymyxin B (E. coli MG1655; with polymyxin B at MIC/2 (0.313 μg/mL), 24 hours at 37° C.): no E. coli or P. aeruginosa grew
